Among the data in patent US8791100B2 (Novartis AG, priority 2010, dated 2014) are IC50 values, retold here.

The target in this experiment is human S1P1 receptors (Homo sapiens (Human), UniProt P21453). As to the kind of experiment: Human S1P1 Receptor Calcium FLIPR Antagonist Assay (HeLa Gα16 S1P1). Conditions: relative antagonism vs probing agonist GNF-AC-1 at EC80, HeLa-S1P1/Gα16 cells. The class given is cell-based. From the text: Human S1P1 Receptor Calcium FLIPR Antagonist Assay
The assay measures intracellular changes of Ca^2+ mediated by the synthetic probing agonist 3-{[2-(2-Trifluoromethyl-biphenyl-4-yl)-benzo[b]thiophen-5-ylmethyl]-amino}-propionic acid (GNF-AC-1) in the HeLa-S1P1/Gα16 cell clone 1: HeLa (human cervix carcinoma, ATCC CCL2) cells stably expressing N-terminally myc-tagged human S1P1 receptors (GenBank™ accession No. NM_001400; UNIPROT P21453) and promiscuous Gα16 protein (GenBank™ accession number M63904, Swissprot P30679) are cultured at 37° C., 5% CO2, and 95% relative humidity. The cells are plated in 384 well black plates (10′000 cells per well). After 24 hours the cells are loaded with Fluo-4-AM (1.6 μM in HBSS and 2.5 mM probenicid) for 1 hour at 37° C. After washing, the cells are transferred to the FLIPR. The test compounds are added at different concentrations (≦100 μM) in HBSS in the presence of 0.1% BSA and changes in fluorescence are recorded (indication of agonism). The probing agonist is added 20-30 minutes afterwards to the wells at a concentration giving 80% of the maximal activity (EC80). After each addition, time points are collected as follows: 20 time points (2 seconds) before the addition of the agonist (Fmin) and 60 time points (1 or 2 seconds) after the addition of the probing agonist. This allows the determination of the maximal fluorescence (Fmax). The ratio (Fmax−Fmin)/Fmin is plotted against the log of the concentration of the test compounds and the IC50 (relative antagonism) is calculated using the XLfit-4 software. […] A concentration-response curve of the probing agonist is determined on each plate in parallel.

Chain of human S1P1 receptors (P21453 whole entry): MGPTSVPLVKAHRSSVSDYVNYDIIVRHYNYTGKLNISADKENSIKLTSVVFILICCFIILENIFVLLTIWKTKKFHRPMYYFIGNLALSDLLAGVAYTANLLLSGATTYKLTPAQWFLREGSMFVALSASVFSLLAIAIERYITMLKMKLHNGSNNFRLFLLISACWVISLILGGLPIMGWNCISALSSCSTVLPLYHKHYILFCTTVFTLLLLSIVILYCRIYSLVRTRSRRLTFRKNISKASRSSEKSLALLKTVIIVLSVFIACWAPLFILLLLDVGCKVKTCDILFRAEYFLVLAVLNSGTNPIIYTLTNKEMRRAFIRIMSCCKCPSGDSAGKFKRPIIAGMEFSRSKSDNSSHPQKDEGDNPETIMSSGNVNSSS

For `CC[C@@H](Nc1cc(CN2CCC(C)(C(=O)O)C2)c(Cl)cn1)c1ccc(Cl)c(C)c1` (single isomer, unassigned) [Example 87], the half-inhibitory concentration (IC50) was 0.7 nM.
For `Cc1cc(C(C)Nc2cccc(CN3CC(C(=O)O)C3)c2)ccc1Cl` (centres unmarked) [Example 1, 1-{3-[1-(4-Chloro-3-methyl-phenyl)-ethylamino]-benzyl}-azetidine-3-carboxylic acid] the value was 14.7 nM; for `CCC(Nc1cccc(CN2CC(C(=O)O)C2)c1)c1ccc(Cl)c(C)c1` (centres unmarked) [Example 2, 1-{3-[1-(4-Chloro-3-methyl-phenyl)-propylamino]-benzyl}-azetidine-3-carboxylic acid], 3.5 nM; for `CC[C@@H](Nc1cccc(CN2CC(C(=O)O)C2)c1)c1ccc(Cl)c(C)c1` [Example 3, 1-{3-[(R)-1-(4-Chloro-3-methyl-phenyl)-propylamino]-benzyl}-azetidine-3-carboxylic acid], 0.9 nM.
For `CCC(Nc1ccc(C)c(CN2CC(C(=O)O)C2)c1)c1ccc(Cl)c(C)c1` (centres unmarked) [Example 4, 1-{5-[1-(4-Chloro-3-methyl-phenyl)-propylamino]-2-methyl-benzyl}-azetidine-3-carboxylic acid] the value was 0.2 nM.
For `CC[C@@H](Nc1cccc(C(C)N2CC(C(=O)O)C2)c1)c1ccc(Cl)c(C)c1` (stereo partly drawn) [Example 6, 1-(1-{3-[(R)-1-(4-Chloro-3-methyl-phenyl)-propylamino]-phenyl}-ethyl)-azetidine-3-carboxylic acid] the value was 0.5 nM; for `CC[C@@H](Nc1cccc(CN2CC(C)(C(=O)O)C2)c1)c1ccc(Cl)c(C)c1` [Example 8, 1-{3-[(R)-1-(4-Chloro-3-methyl-phenyl)-propylamino]-benzyl}-3-methyl-azetidine-3-carboxylic acid], 1.5 nM.
On to `CCC(Nc1cc(C)cc(CN2CC(C(=O)O)C2)c1)c1ccc(Cl)c(C)c1` (centres unmarked) [Example 9, 1-{3-[1-(4-Chloro-3-methyl-phenyl)-propylamino]-5-methyl-benzyl}-azetidine-3-carboxylic acid], for which the IC50 was determined as 0.4 nM.
For `CCC(Nc1ccc(C)c(C(C)N2CC(C(=O)O)C2)c1)c1ccc(Cl)c(C)c1` (centres unmarked) [Example 10, 1-(1-{5-[1-(4-Chloro-3-methyl-phenyl)-propylamino]-2-methyl-phenyl}-ethyl)-azetidine-3-carboxylic acid] the value was 1.6 nM; for `CC[C@@H](Nc1cccc(CN2CC[C@@H](C(=O)O)C2)c1)c1ccc(Cl)c(C)c1` [Example 11], 4 nM; for `CCC(c1cccc(N[C@H](CC)c2ccc(Cl)c(C)c2)c1)N1CC(C(=O)O)C1` (stereo partly drawn) [Example 13, 1-(1-{3-[(R)-1-(4-Chloro-3-methyl-phenyl)-propylamino]-phenyl}-propyl)-azetidine-3-carboxylic acid], 4.7 nM.
The figure for `CCC(Nc1cccc(CN2CC[C@@H](C(=O)O)C2)c1C)c1ccc(Cl)c(C)c1` (stereo partly drawn) [Example 14, (R)-1-{3-[1-(4-Chloro-3-methyl-phenyl)-propylamino]-2-methyl-benzyl}-pyrrolidine-3-carboxylic acid] is 1.5 nM; for `CCC(Nc1cc(C)cc(CN2CC[C@@H](C(=O)O)C2)c1)c1ccc(Cl)c(C)c1` (stereo partly drawn) [Example 15, (R)-1-{3-[1-(4-Chloro-3-methyl-phenyl)-propylamino]-5-methyl-benzyl}-pyrrolidine-3-carboxylic acid] it is 2.3 nM; for `Cc1cc(C(Nc2cccc(CN3CC(C(=O)O)C3)c2)C(C)C)ccc1Cl` (centres unmarked) [Example 17, 1-{3-[1-(4-Chloro-3-methyl-phenyl)-2-methyl-propylamino]-benzyl}-azetidine-3-carboxylic acid] it is 1.6 nM.
Turning to `CC[C@@H](Nc1cccc(CN2CC(C(=O)O)C2)c1)c1cc(C)c(Cl)c(C)c1` [Example 18, 1-{3-[(R)-1-(4-Chloro-3,5-dimethyl-phenyl)-propylamino]-benzyl}-azetidine-3-carboxylic acid], the IC50 worked out at 1.9 nM.
For `CC[C@@H](Nc1cccc(CN2CC(C(=O)O)C2)c1)c1ccc2c(Cl)cccc2c1` [Example 20, 1-{3-[(R)-1-(5-Chloro-naphthalen-2-yl)-propylamino]-benzyl}-azetidine-3-carboxylic acid] the value was 2 nM.
Turning to `CC[C@@H](Nc1ccc(C)c(CN2CC(C(=O)O)C2)c1)c1ccc(Cl)c(C)c1` [Example 22, 1-{5-[(R)-1-(4-Chloro-3-methyl-phenyl)-propylamino]-2-methyl-benzyl}-azetidine-3-carboxylic acid], the IC50 came to 0.8 nM.
For `CC[C@@H](Nc1cccc(CN2CC(C(=O)O)C2)c1F)c1ccc(Cl)c(C)c1` [Example 24, 1-{3-[(R)-1-(4-Chloro-3-methyl-phenyl)-propylamino]-2-fluoro-benzyl}-azetidine-3-carboxylic acid] the value was 1.9 nM.
For `CC[C@@H](Nc1cccc(CN2CC[C@@H](C(=O)O)C2)c1F)c1ccc(Cl)c(C)c1` [Example 25, (R)-1-{3-[(R)-1-(4-Chloro-3-methyl-phenyl)-propylamino]-2-fluoro-benzyl}-pyrrolidine-3-carboxylic acid] the value was 3.3 nM.
On to `CC[C@@H](Nc1cc(CN2CC(C(=O)O)C2)ccc1F)c1ccc(Cl)c(C)c1` [Example 26, 1-{3-[(R)-1-(4-Chloro-3-methyl-phenyl)-propylamino]-4-fluoro-benzyl}-azetidine-3-carboxylic acid], for which the IC50 amounted to 2.1 nM.
For `CC[C@@H](Nc1cc(CN2CC[C@@H](C(=O)O)C2)ccc1F)c1ccc(Cl)c(C)c1` [Example 27, (R)-1-{3-[(R)-1-(4-Chloro-3-methyl-phenyl)-propylamino]-4-fluoro-benzyl}-pyrrolidine-3-carboxylic acid], the half-maximal inhibitory concentration (IC50) turned out to be 10.6 nM.
The figure for `CC[C@@H](Nc1ccc(C)c(CN2CC(C)(C(=O)O)C2)c1)c1ccc(Cl)c(C)c1` [Example 28, 1-{5-[(R)-1-(4-Chloro-3-methyl-phenyl)-propylamino]-2-methyl-benzyl}-3-methyl-azetidine-3-carboxylic acid] is 0.8 nM; for `CCc1ccc(N[C@@H](c2ccc(Cl)c(C)c2)C(F)(F)F)cc1CN1CC(C(=O)O)C1` [Example 35, 1-{5-[(S)-1-(4-Chloro-3-methyl-phenyl)-2,22-trifluoro-ethylamino]-2-ethyl-benzyl}-azetidine-3-carboxylic acid] it is 1.8 nM.
Take `CCc1ccc(N[C@H](CC)c2ccc(Cl)c(C)c2)cc1CN1CC[C@@H](C(=O)O)C1` [Example 36, (R)-1-{5-[(R)-1-(4-Chloro-3-methyl-phenyl)-propylamino]-2-ethyl-benzyl}-pyrrolidine-3-carboxylic acid]: the IC50 came out at 3.7 nM.
The figure for `CCc1ccc(N[C@H](CC)c2ccc(Cl)c(C)c2)cc1CN1CC(C(=O)O)C1` [Example 37, 1-{5-[(R)-1-(4-Chloro-3-methyl-phenyl)-propylamino]-2-ethyl-benzyl}-azetidine-3-carboxylic acid] is 2.5 nM.
For `CC[C@@H](Nc1ccc(Cl)c(CN2CC[C@@H](C(=O)O)C2)c1)c1ccc(Cl)c(C)c1` [Example 38, (R)-1-{2-Chloro-5-[(R)-1-(4-chloro-3-methyl-phenyl)-propylamino]-benzyl}-pyrrolidine-3-carboxylic acid] the value was 0.8 nM; for `Cc1cc([C@H](Nc2cccc(CN3CC(C(=O)O)C3)c2C)C(F)(F)F)ccc1Cl` [Example 39, 1-{3-[(S)-1-(4-Chloro-3-methyl-phenyl)-2,2,2-trifluoro-ethylamino]-2-methyl-benzyl}-azetidine-3-carboxylic acid], 0.8 nM; for `Cc1cc([C@H](Nc2ccc(C)c(CNCCC(=O)O)c2C)C(F)(F)F)ccc1Cl` [Example 40, 3-{3-[(S)-1-(4-Chloro-3-methyl-phenyl)-2,2,2-trifluoro-ethylamino]-2,6-dimethyl-benzylamino}-propionic acid], 0.4 nM.
The figure for `Cc1ccc(N[C@H](C)c2cc(C)c(Cl)c(C)c2)cc1CN1CC[C@@H](C(=O)O)C1` [Example 44, (R)-1-{5-[(R)-1-(4-Chloro-3,5-dimethyl-phenyl)-ethylamino]-2-methyl-benzyl}-pyrrolidine-3-carboxylic acid] is 6.7 nM; for `Cc1cc([C@@H](C)Nc2ccc(Cl)c(CN3CC[C@@H](C(=O)O)C3)c2)cc(C)c1Cl` [Example 46, (R)-1-{2-Chloro-5-[(R)-1-(4-chloro-3,5-dimethyl-phenyl)-ethylamino]-benzyl}-pyrrolidine-3-carboxylic acid] it is 1.3 nM.
With `Cc1ccc(N[C@H](C)c2cc(C)c(Cl)c(C)c2)cc1CNCCC(=O)O` [Example 47, 3-{5-[(R)-1-(4-Chloro-3,5-dimethyl-phenyl)-ethylamino]-2-methyl-benzylamino}-propionic acid], the half-inhibitory concentration (IC50) was 1.6 nM.
As to `CC[C@@H](Nc1ccc(C)c(CNC[C@@H](C)C(=O)O)c1)c1cc(C)c(Cl)c(C)c1` [Example 49, (R)-3-(5-[(R)-1-(4-Chloro-3,5-dimethyl-phenyl)-propylamino)-2-methyl-benzylamino]-2-methyl-propionic acid], the IC50 is 2.4 nM.
